Data published in patent US20090253719A1, “CRYSTALLINE SALT FORMS OF ANTIFOLATE COMPOUNDS AND METHODS OF MANUFACTURING THEREOF” (Chelsea Therapeutics, Inc., priority 2008, published 2009).

How the values were obtained:
[1] = Plasma concentration after oral L- or D-CH-1504 in non-fasted female Lewis rats; format: in vivo
Protocol: L- or D-CH-1504 was administered once orally to non-fasted female Lewis rats at a dose of 10 mg/kg (vehicle: 0.11% carboxymethylcellulose/0.45% TWEEN 80, formulation: suspension). About 750 μL of blood was collected from the jugular vein at 1 and 3 hours after administration. And then, whole of blood was collected from the femoral vein under diethyl ether anesthesia at 6 hours after administration. The collected blood was immediately centrifuged to obtain a plasma sample. L- and D-CH-1504 were extracted from the plasma by solid-phase extraction and were then determined with a LC/MS/MS.

[2] = tested on: CCRF-CEM cells; experiment: Growth inhibition of CCRF-CEM cells, continuous (120 hr) drug exposure; format: cell-based; details: Homo sapiens, continuous 120 hr exposure
Protocol: The human T-lymphoblastic leukemia cell line CCRF-CEM (described in Foley G F, et al., Cancer 1965; 18:522-9) was cultured as described in McCloskey D E, et al., J Biol Chem 1991; 266:6181-7 (both of which are incorporated herein by reference in their entirety) and verified to be negative for Mycoplasma contamination (Mycoplasma Plus PCR primers, Stratagene, La Jolla, Calif.).

[3] = Protocol: A salt screen of this compound was conducted with various pharmaceutically acceptable counterions to analyze aqueous solubility of the formed salts. Formed solids suspected of forming salts were analyzed by X-ray powder diffraction (XRPD).
[4] = Hygroscopicity study (storage at controlled relative humidity); format: physicochemical; details: 75% relative humidity for five days
From the text: Hygroscopicity and approximate solubility in aqueous and buffered solutions of ammonium, besylate, calcium, esylate, sulfate, HCl, mesylate, napsylate, potassium, disodium, and tosylate salts were compared. In the hygroscopicity study, the salts were subjected to 75% relative humidity for five days.
An amorphous form was also generated. […] As described above, disodium salt Form A was a crystalline solid obtained using a water/IPA system or a water/acetone system. […] Heating was continued to achieve a temperature of 90° C. Crystallinity was not regained upon cooling to ambient.

## C=C(CC(NC(=O)c1ccc(CCc2ccc3nc(N)nc(N)c3c2)cc1)C(=O)O)C(=O)O (racemic) [CH-1504, 2-{4-[2-(2,4-diamino-quinazolin-6-yl)-ethyl]-benzoylamino}-4-methylene-pentanedioic acid]
[1]; by 6 hours after administration of each enantiomer, all samples
  isomerization in vivo: could not be confirmed
[2]
  EC50: 8.6 nM
[3]
  solubility of free acid form: poor solubility

## C=C(C[C@@H](NC(=O)c1ccc(CCc2ccc3nc(N)nc(N)c3c2)cc1)C(=O)O)C(=O)O [D-CH-1504]
[1]; 1 h after 10 mg/kg oral, non-fasted female Lewis rats, individual animals
  Plasma conc. of D-CH-1504: 11.0 ng/mL
[1]; female, Lewis, rat, plasma, oral, 10 mg/kg, 3 h after 10 mg/kg oral, non-fasted female Lewis rats, individual animals, read-out: Plasma conc. of D-CH-1504
  concentration at 3 h: 14.3 ng/mL
[1]; female, Lewis, rat, plasma, oral, 10 mg/kg, 6 h after 10 mg/kg oral, non-fasted female Lewis rats, individual animals, read-out: Plasma conc. of D-CH-1504
  concentration at 6 h: 8.34 ng/mL
[2]
  EC50: 29 nM

## C=C(C[C@H](NC(=O)c1ccc(CCc2ccc3nc(N)nc(N)c3c2)cc1)C(=O)O)C(=O)O [L-CH-1504, (S)-2-{4-[2-(2,4-diamino-quinazolin-6-yl)-ethyl]-benzoylamino}-4-methylene-pentanedioic acid]
[2]
  EC50: 6.1 nM

## CN(Cc1cnc2nc(N)nc(N)c2n1)c1ccc(C(=O)NC(CCC(=O)O)C(=O)O)cc1 (stereo not shown) [MTX, methotrexate, reference compound]
[2]
  EC50: 15 nM

## C=C(CC(NC(=O)c1ccc(CCc2ccc3nc(N)nc(N)c3c2)cc1)C(=O)O)C(=O)O.O=S(=O)(O)c1ccc2ccccc2c1 (stereo not shown) [napsylate salt]
[4]
  hygroscopicity study outcome: remained unchanged
